SMILES | melting point
CNc1cc(F)c(C#N)cc1F | 160 to 163 °C
O=C(CCCCCNCC(O)c1ccccc1)OCc1ccccc1 (stereo not given) | 77 to 78 °C
Cc1ccc(NS(=O)(=O)c2ccccc2)cc1N | 142 to 144 °C
CC(C)(C)C(=O)OCc1cc2c(OCC3CO3)cccc2[nH]1 (stereo not given) | 129 to 131 °C
C#CCOc1ccc(-c2nc3ccccc3o2)cc1 | 124 to 127 °C
C[C@H](Nc1nc(Cl)nc(Cl)n1)c1ccccc1 | 146 to 147 °C
Nc1ccc(Oc2ccc3sncc3c2)c(C(F)(F)F)c1 | 136 °C
Clc1ccc(Cl)n2nc(SCc3ccccc3)nc12 | 103 to 104 °C
CC(C)(C)OC(=O)N1Cc2c(Br)sc(Br)c2C1 | 144 to 145 °C
COc1cc(Cl)ccc1CC(=O)O | 100 °C
COC=C(C(=O)OC)N(C)c1nc(-c2ccc(Cl)cc2)cs1 | 104 to 105 °C
Cc1nnc(CN2C(=O)c3ccccc3C2=O)n1-c1ccc(Cl)cc1C(=O)c1ccccc1 | 215 to 218 °C
CC(c1ccccc1)N1C(=O)NC(=O)C1O (stereo not given) | 139 to 140 °C
O=C(O)CO[C@@H]1CCCC[C@H]1NC(=S)Nc1ccccc1 (relative stereo) | 147 to 149 °C
C(=C\c1nc(COc2ccccc2CCCn2cncn2)co1)/c1ccccc1 | 72 to 73 °C
CC(C)(C)c1cc(CC=Cc2ccccc2)cc(C(C)(C)C)c1O | 93 °C
O=C1COCCOCC(=O)N2CCOCCOCCN1CCOCC2 | 105 °C
Cc1nn(C)c2c1N(C(=O)CN(C)C)c1ccccc1NC2=O | 178 to 179 °C
CC(O)CN1N=CCCC1c1ccc(Cl)c(Cl)c1 (stereo not given) | 75 to 77 °C
COc1c(C(C)(C)C)cc(C=O)c(O)c1Br | 123 to 124 °C

SMILES | melting point
FC(F)(F)Oc1ccc2nc(NC(=S)Nc3ccccc3)sc2c1 | 234 °C
CC(CCC(O)C(C)(C)O)C1CCC2C3C(O)CC4CC(O)CCC4(C)C3CC(O)C12C (stereo not given) | 199 to 200 °C
Cc1cc(C)c(-c2nc(-c3ccc(O)cc3O)nc(-c3ccc(O)cc3O)n2)c(C)c1 | 230 to 234 °C
S=C(Nc1ccc(Cl)cc1)NC1CCCCC1 | 179 to 180 °C
COC(=O)C(Cl)=NNc1ccc(F)cc1 | 110 to 113 °C
O=C(Cc1c2c(nn1-c1ccccc1)c(Cl)nc1ccccc12)N1CCN(Cc2ccccc2)CC1 | 210 to 212 °C
CCCCCCCCCCCC(=O)c1ccc(/C=C/C(=O)OCC)o1 | 50 to 51 °C
CSc1nc(NCC=C(C)C)c2ccnc-2[nH]1 | 155 to 156 °C
CC(Nc1nc(NNC(=O)CCCl)nc(Cl)c1-c1c(F)cccc1Cl)C(F)(F)F (stereo not given) | 152 to 156 °C
CCCCCCCCCCC1(CCCCCCCCCC)c2cc(Br)ccc2-c2ccc(I)cc21 | 43 to 45 °C
CC1(C)CCc2c(N3CCCC3)nc3sc4c(NCC(=O)NCC5CCCO5)ncnc4c3c2C1 (stereo not given) | 210 to 211 °C
C=CCC(C(=O)OC)C1(C)CCCc2c1[nH]c1ccccc21 (stereo not given) | 115 to 116 °C
CC(C)(C)OC(=O)N1CCC(C(=O)O)(C2CCCCC2)CC1 | 156 °C
CC(C)c1cccc(C(C)C)c1NS(=O)(=O)CC(=O)NC(c1ccccc1)c1ccccc1 | 166 to 167 °C
NC(=O)C1=CC=CNC=C1 | 167 to 171 °C
Cc1ccc(NC(=O)c2cc(Br)c(Br)s2)cc1C | 216 to 217 °C
FC(F)(F)c1nnnn1-c1ccc(C2=NOC(c3cc(Cl)cc(Cl)c3)(C(F)(F)F)C2)cc1 (stereo not given) | 147 to 151 °C
CCCCCCCCCCC=CCc1c[nH]c(C(=O)NN)c1 | 130 to 132 °C
COC(=O)c1ccc2c(c1SCCCl)Cc1ccccc1CO2 | 100 °C

Second part, the compound after the results:

melting point | SMILES
168 to 170 °C | NC(=O)c1[nH]c2ccccc2c1-c1ccc(NC(=O)Nc2ccc(C(F)(F)F)c(Cl)c2)cc1
106 to 109 °C | CCCCn1nnnc1-c1ccc(C(=O)NCC2CCCC2(C)C)cc1 (stereo not given)
> 320 °C | CCCc1nc2ccnn2c(O)c1Cc1ccc(-c2ccccc2-c2nnn[nH]2)cc1
> 260 °C | O=c1ccc(-c2c(-c3ccccc3)nn3ccccc23)nn1CC1(O)CCNCC1
155 °C | O=C1c2ccccc2C(=O)N1CCOc1nc(-c2ccccc2)c2cc(Cl)ccc2n1
50 to 52 °C | COC(=O)CC1(OCc2ccccc2)C=CC=C(c2ccccc2)C1 (stereo not given)
231 to 233 °C | O=C(O)CCC(=O)N1Cc2c(cc3ccc4c(c3c2-c2ccc3c(c2)OCO3)OCO4)C1=O
134 to 137 °C | CCCc1ncc(CO)c(NCc2ccc(-c3ccccc3-c3nnnn3C(c3ccccc3)(c3ccccc3)c3ccccc3)cc2)n1
299 to 300 °C | Cc1ccc2c(O)c(-c3cccc(Oc4ccccc4)c3)c(=O)[nH]c2c1
122 to 129 °C | COc1cc(OCc2cccnc2)ccc1/C=C/c1cc(/C=C/c2cccc3cc[nH]c23)n[nH]1
228 to 229 °C | COc1cc2c(c3c1OC(C)(C)C3)C(c1ccccc1)=NC(CN1C(=O)c3ccccc3C1=O)C2 (stereo not given)
230 to 231 °C | COc1ccccc1-n1cnc2c(C(N)=O)nc(-c3cccc(O)c3)nc21
172 to 175 °C | Nc1cccc(-c2ccc(CCN3CCN(C(=O)NCc4ccccc4)CC3)cc2)n1
58 to 60 °C | CCN(CC)C(=O)c1cc(-c2ccc(OC)cc2)ccc1OC
185 to 188 °C | CN1C(=O)C2CC(c3ccc([N+](=O)[O-])cc3)(C2)C1=O
203 to 204 °C | CCn1ncc2c(-c3cncc(C)c3)c(C(=O)NCc3ccc(OC)cc3)c(-c3ccccc3)nc21

melting point | SMILES
238 to 242 °C | CCOC(=O)c1cnc2nc(C=CC(N)=O)c(OCC)cc2c1Nc1ccc(OC)cc1
179 to 180 °C | COc1cc(OC)c2c(=O)[nH]c(-c3ccc(OCCNC(C)C)c(-c4ccccc4)n3)nc2c1
101 to 103 °C | CCc1nc2c(Cl)ncnc2n1Cc1ccc(OC)cc1
156 to 158 °C | CCOC(=O)C1=C(C)NC(COC)=C(C(=O)OCC)C1c1ccc(S(C)(=O)=O)cc1 (stereo not given)
158 to 160 °C | Cc1ccc(S(=O)(=O)N2Cc3csc(C)c3C2)cc1
192 to 195 °C | CCOc1ccc(-c2ccc3c(c2)C=C(C(=O)Nc2ccc(CN(C)C4CCOCC4)cc2)CCS3=O)cc1 (stereo not given)
283 to 286 °C | O=C(NCc1ccc(Cl)cc1)c1cnc2c(I)cc(CO)cc2c1O
77 to 79 °C | Cc1c(OCc2ccccc2)cc(C(C)(C)C)cc1[N+](=O)[O-]
174 to 177 °C | COc1cc2c(cc1OC)C1(CCN(CCc3ccc([N+](=O)[O-])cc3)CC1)N(Cc1ccc([N+](=O)[O-])cc1)CC2=O
233 to 234 °C | Cc1nnc(-c2ccc3ncn(C4CCN(S(C)(=O)=O)CC4)c3c2)o1
121 °C | CN(CCCCC(=O)OC[C@@H]1CC(c2ccc(-c3ccc(N4C[C@H](Cn5ccnn5)OC4=O)cc3F)cn2)=NO1)C(=O)OC(C)(C)C
94 to 95 °C | O=c1cc(-c2ccccc2)oc2cc(OCCCCCN3CCC(O)CC3)ccc12
156 to 157 °C | COC(=O)CCCOc1cc([N+](=O)[O-])c(C(C)NC(=O)C(F)(F)F)cc1OC (stereo not given)
96 to 96.5 °C | CCC(=C1SCN(C)CS1)c1ccc(Oc2ccccc2)cc1
166 to 170 °C | c1cc(OCc2ccc3ccccc3n2)cc(OCc2ccccc2-c2nnn[nH]2)c1

From a melting point compilation (Tetko et al.; mined from patent text by program, amines drawn as free bases though some values may be those of a salt)
